Measurements reported in patent US5277897A, “In vivo enhancement of cellular accumulation of lipophilic cationic organometallic compounds by reduction of intramembrane potential” (Brigham and Women's Hospital, priority 1992, dated 1994).

Legend:
[1] = Effect of tetraphenylborate on the biodistribution of Tc-MIBI in rats (Table 2); format: in vivo; conditions: for Blood level / Heart uptake / Kidney uptake / Liver uptake / Lung uptake: 15 minutes; for tissue retention of Tc-MIBI, all tissues: 15 min
Protocol: The results are expressed as percent injected dose per gram of tissue. […] For this series of experiments, 50 microliters of dimethylsulfoxide lacking or containing 7.2 mM TPB were injected directly into the jugular vein of anesthetized rats immediately prior to the injection of Tc-MIBI (150 microliters; 100 microCuries per 200 microliters).
After 15 minutes, the animal was sacrificed by thoracotomy, organs extracted and placed in test tubes and counted for radioactivity in a standard well-type gamma counter. Tissue wet weights were obtained by subtracting fare weights from total weight of test tubes plus tissue.
Results are expressed as mean ±SEM of three determinations each.

[2] = tested on: cultured chick heart cells; experiment: Effect of valinomycin on tetraphenylborate enhancement of Tc-MIBI accumulation in high Ko buffer (Table 1); format: cell-based; conditions: for Tc-MIBI Net Uptake: n = 3
Protocol: Monolayers of spontaneously contractile chick ventricular myocardial cells were obtained from disaggregated 10-day old chick embryo hearts by a slight modification of previously published methods (Horres, C. R., et al., In Pinson, A. (ed.), The Heart Cell in Culture, Boca Raton, CRC Press, pp. 77-108 (1987)). Hearts were trimmed of connective tissue and atria, finely minced and serially exposed to 0.024% (w/v) trypsin in Ca^2+ - and Mg^2+ - free Earle's salt solution for 7 minutes at 37° C. Gentle trituration and agitation on an orbital shaker bath aided disaggregation. Cells released from the first exposure were discarded and cells aspirated from the next four exposures were then added to an equal volume of trypsin deactivating solution consisting of ice-cold culture medium. Cells were centrifuged at 400 g for 10 minutes, resuspended and combined in culture medium, counted with a hemocytometer and diluted to yield a suspension of 5×10^5 cells/ml. 12 ml of suspension were incubated in 100 mm plastic culture dishes containing 7 coverslips (25 mm diameter) placed on the bottom of each dish to serve as substrate for cell growth. Cells were maintained in a humidified atmosphere of 5% CO2 /95% air for 3-4 days yielding a confluent layer of spontaneously contractile myocytes on each coverslip.
Radioactive uptake methods have been described in detail (Piwnica-Worms, D., et al, Circ. (in press). Briefly, coverslips with confluent cells were removed from culture media and pre-equilibrated for 40-60 seconds in MEBSS buffer. Uptake and retention experiments were initiated by immersion of coverslips in 60 mm glass Pyrex dishes containing loading solution consisting of buffer with 0.1-0.6 nM [^99m Tc-MIBI] (0.01-0.4 Ci/nmole; 25-100 uCi/ml). Preparations were removed at various times and rinsed three times in 25 ml volumes of ice-cold (2° C.) isotope-free buffer for 8 seconds each to clear extracellular spaces. Preparations and aliquots of the loading buffer and stock solutions were counted in a well-type sodium iodide gamma counter after which cell protein on each coverslip was extracted in 1% sodium dodecylsulfate with 10 mM sodium borate and assayed by the method of Lowry (Lowry, O. H., et al., J. Biol. Chem. 193:265-275 (1951)). Tc-MIBI binding to glass coverslips without cells was used as an estimate of non-specific adhesion to the substrate ([…] obtained with cellular preparations); this value was subtracted from total uptake determinations to derive the cell-associated counts. Use of generator equilibrium equations (Lamson, M. L., et al., i J. Nucl. Med. 16:639-641 (1975)) allowed calculation of absolute moles of Tc-MIBI in solutions and preparations. Results were therefore expressed as fmol cellular Tc-MIBI/mg protein per nM extracellular Tc-MIBI concentration. Division of this value by the cell water space (6.9 ul/mg protein; Chiu, M. L., et al., J. Nucl. Med. (31:1646-1653(1990)) yields a nominal intracellular/extracellular Tc-MIBI accumulation ratio neglecting subcellular compartmentation of the agent.
To further explore the influence of TPB on any potential-independent accumulation of Tc-MIBI in myocytes, preparations were exposed to 130 mM K° 20 mM Clo buffer (Table 1). […] Equilibration of intracellular and extracellular spaces occurred in the presence of high K buffer plus valinomycin under all conditions (in/out ration ~1; P=NS) indicating the lack of any significant potential-independent membrane binding of Tc-MIBI.
Preparations were incubated in high Ko low Clo loading buffer +/- valinomycin (1 ug/ml) for 20 minutes in the presence of TPB (10^-5 M) or for 40 minutes in its absence to determine peak accumulation of Tc-MIBI under each condition. Values are the mean ±SEM. Tc-MIBI in/out ratios were obtained by dividing net uptake values by the cell water space of […] (Chiu, M. L., et al., J. Nucl. 31:1646-1653 (1990)). +p<0.01; * p<0.001 compared to net uptake in 130 mM Ko buffer.

[C-]#[N+]CC(C)(C)OC.[C-]#[N+]CC(C)(C)OC.[C-]#[N+]CC(C)(C)OC.[C-]#[N+]CC(C)(C)OC.[C-]#[N+]CC(C)(C)OC.[C-]#[N+]CC(C)(C)OC.[Tc] [Tc-MIBI, hexakis(methoxyisobutylisonitrile)technetium(I)]
Blood level ([1]; +TPB): 0.06 ± 0.01 % ID/gm
Heart uptake ([1]; +TPB): 1.45 ± 0.11 % ID/gm
Kidney uptake ([1]; +TPB): 5.81 ± 0.74 % ID/gm
Liver uptake ([1]; +TPB): 0.76 ± 0.40 % ID/gm
Lung uptake ([1]; +TPB): 1.07 ± 0.15 % ID/gm
tissue retention of Tc-MIBI, all tissues ([1]; +TPB): 9.15 % ID per gram of total tissue
Blood level ([1]; -TPB): 0.04 ± 0.01 % ID/gm
Heart uptake ([1]; -TPB): 1.92 ± 0.51 % ID/gm
Kidney uptake ([1]; -TPB): 3.38 ± 1.09 % ID/gm
Liver uptake ([1]; -TPB): 0.25 ± 0.15 % ID/gm
Lung uptake ([1]; -TPB): 0.45 ± 0.09 % ID/gm
tissue retention of Tc-MIBI, all tissues ([1]; -TPB): 6.04 % ID per gram of total tissue
Tc-MIBIi/Tc-MIBIo (in/out ratio) ([2]; 130 Ko (no TPB)): 9.5
Tc-MIBI Net Uptake ([2]; 130 Ko (no TPB), 40 minutes): 65.3 ± 5.3 fmol/mg protein/nMo
Tc-MIBIi/Tc-MIBIo (in/out ratio) ([2]; 130 Ko + TPB 10^-5 M): 13.6
Tc-MIBIi/Tc-MIBIo (in/out ratio) ([2]; 130 Ko + TPB 10^-5 M + valinomycin 1 ug/ml): 1.1
Tc-MIBI Net Uptake ([2]; 130 Ko + TPB 10^-5 M + valinomycin 1 ug/ml, 20 minutes, p<0.001 vs 130 mM Ko): 7.6 ± 0.8 fmol/mg protein/nMo
Tc-MIBI Net Uptake ([2]; 130 Ko + TPB 10^-5 M, 20 minutes, p<0.01 vs 130 mM Ko): 93.9 ± 4.4 fmol/mg protein/nMo
Tc-MIBIi/Tc-MIBIo (in/out ratio) ([2]; 130 Ko + valinomycin 1 ug/ml): 0.9
Tc-MIBI Net Uptake ([2]; 130 Ko + valinomycin 1 ug/ml, 40 minutes, p<0.001 vs 130 mM Ko): 6.2 ± 0.3 fmol/mg protein/nMo
in/out ratio, high K buffer plus valinomycin ([2]; all conditions, P=NS): ~ 1
